Laboratory results taken from US20250197398A1, “Varenicline Related Compounds and Methods for Treating Diseases and Conditions Including Tobacco Use Disorder” (SpaceRX LLC, priority 2022, published 2025).

Columns and labels:
Format in all cases: in vivo
[1] = system: nicotine-induced dopamine signaling in the striatum; assay: Nicotine-evoked striatal dopamine release after compound pretreatment (GRAB-DA sensor, fiber photometry); settings: awake mice pretreated with compound; IP nicotine 2 hours later; mean dopamine response for 30 minutes following nicotine; varenicline 1.5 and 4.5 mpk; FIG. 2A-2C
Source text: (§1) FIG. 1A-FIG. 1B are a schematic and a response curve illustrating the monitoring of striatal dopamine in the awake behaving animal in response to varenicline. […] Scale bar, 200 μm.
FIG. 2A-FIG. 2C are bar graphs and a response curve illustrating the striatal dopamine responses to nicotine. […] FIGS. 2B-2C show exemplary traces and quantification of striatal dopamine responses preceding and following an IP administration of nicotine. Mice were pretreated either with Varenicline (light grey) or Varenicline-Encarbil (dark grey).
(§2) The ability of varenicline to decrease nicotine use comes from the ability to block nicotine-induced dopamine signaling in the striatum. Real-time sensing of dopamine levels in awake and behaving mice was measured using a fluorescent dopamine sensor (GRAB-DA) and fluorometric measurements of that sensor (Fiber Photometry).

striatal dopamine levels = assay: Striatal dopamine response to oral compound administration (GRAB-DA sensor, fiber photometry); settings: awake mice; mean for 30 minutes following compound administration; varenicline 1.5 and 4.5 mpk; FIG. 3A-3B
Source text: as §1
FIG. 3A-FIG. 3B are a bar graph and a response curve illustrating the striatal dopamine responses to oral compound administration.
as §2

[2] = system: anxiety-like behavior in mice; assay: Open field assay after oral compound administration; settings: varenicline 1.5 and 4.5 mpk, FIG. 5
Source text: FIG. 5 is a bar graph illustrating open field responses to oral administration of compounds.
Varenicline also influenced the mobility and anxiety-like behavior in mice.

Row | Compound | anxiety-like behavior: time spent in center of open field [2] | efficacy at reducing the nicotine-evoked release of dopamine [1] | striatal dopamine response following oral administration of compound (striatal dopamine levels)
1 | c1cnc2cc3c(cc2n1)[C@@H]1CNC[C@H]3C1 [varenicline] | dramatically reduced time in the middle | regardless the dose of varenicline, the response to nicotine 2 hours later is the same | increased striatal dopamine levels after administration
2 | N[C@@H](Cc1ccc(OC(=O)N2CC3CC(C2)c2cc4nccnc4cc23)cc1)C(=O)O [Varenicline-CBT] | not observed | – | do not lead to dopamine release
3 | CC(OC(=O)C(C)C)OC(=O)N1CC2CC(C1)c1cc3nccnc3cc12 (stereo not drawn) [Varenicline-Encarbil] | – | better efficacy when compared directly to varenicline | mimic the effects of varenicline

More lines, main results first:

Row | anxiety-like behavior: time spent in center of open field [2] | Compound | efficacy at reducing the nicotine-evoked release of dopamine [1] | striatal dopamine response following oral administration of compound (striatal dopamine levels)
4 | not observed | O=C(N[C@@H](CO)C(=O)O)c1ccc[n+](COC(=O)N2CC3CC(C2)c2cc4nccnc4cc23)c1 [Servarenicline Chloride] | better efficacy when compared directly to varenicline | do not lead to dopamine release
5 | not observed | NCC(=O)N1CC2CC(C1)c1cc3nccnc3cc12 [Varenicline Glycinamide] | – | do not lead to dopamine release
